Marks after values point to notes of the source that are not given here.
Key:
[1] = Glass transition temperature and heat quantity by differential scanning calorimetry (DSC); type: physicochemical; details: 10 wt % in purified water, cooling −1° C./min, heating 5° C./min
Protocol: The glass transition temperature and the heat quantity were determined by differential scanning calorimetry (DSC). The measurement was performed with a cooling rate set to −1° C./min an d a heating rate set to 5° C./min.

human fibroblasts = assay: Influence on cell cycle (Click-iT Plus EdU cell proliferation assay); type: cell-based; details: 2% addition; compared with no addition; FIG. 11
Protocol: The cells used were human fibroblasts.
The test groups were 1% addition groups and 2% addition groups of DMSO and HLS (OE2imC3C) vs. a control.
Cell cycle analysis was conducted using Click-iT® Plus EdU cell proliferation assay (Thermo Fisher Scientific Inc.) containing 5-ethynyl-2′-deoxyuridine (EdU) according to the manufacturer's protocol. The cells were incubated in 10 μM EdU for 1 hour, treated with trypsin, then fixed in 4% PFA, and labeled with Alexa Fluor 647 picolyl azide. The cells were stained with 4′,6-diamidino-2-phenylindole (DAPI) and analyzed with BD FACSAria™ III (BD Biosciences).

Wild-type zebrafish AB* = assay: Influence on development of zebrafish; type: in vivo; details: for Survival rate: fertilized eggs cultured 1.5 to 24 hours
Protocol: All experiments were conducted based on a protocol approved by the animal experiment committee of Kanazawa University. Wild-type zebrafish AB* was raised at 28.5° C. with 14-hour light/10-hour dark cycles in a circulating water system. The medium used was E3 medium (5 mM NaCl, 0.17 mM KCl, 0.33 mM CaCl2, 0.33 mM MgSO4). The medium was supplemented with 1%, 2%, 5% or 10% DMSO or HLS (OE2imC3C). For each test group, eggs were fertilized and then cultured for 1.5 to 24 hours. The embryos thus cultured were washed with E3 medium twice and treated with 1-phenyl-2-thiourea (FUJIFILM Wako Pure Chemical Corp.) in order to prevent pigmentation. The embryos were stained with 0.6 mg/mL o-dianisidine (Tokyo Chemical Industry Co., Ltd.) for 15 minutes and fixed in 4% paraformaldehyde (FUJIFILM Wako Pure Chemical Corp.). The embryos were washed with phosphate-buffered saline containing 0.1% Tween (Sigma-Aldrich Co. LLC) twice. The survival rate was similar between DMSO and HLS (OE2imC3C) up to the 2% addition groups, whereas the survival rate differed largely therebetween in the 5% addition groups.

Human renal cell = assay: Cell freezing experiment 4 (slow freezing), viable cell count as ratio to OE2imC3C; type: cell-based; details: −80° C., −1° C./min
Protocol: (§1) As for the cryopreservation solution, the aprotic zwitterion of each example was dissolved by the addition of purified water to prepare test solutions containing 5% by weight and 10% by weight of the aprotic zwitterion.
(§2) The cells to be frozen were centrifugally recovered by trypsin treatment and diluted with Dulbecco's modified Eagle medium (DMEM), and each cell concentration was measured. The types and cell concentrations of the cells are as follows. • Mouse skin fibroblasts 5.0×10^5 cells/100 μl • Human renal fat cells 5.0×10^5 cells/100 μl
(§3) Subsequently, the cells of each type were dispensed at 1 ml/tube to 1.5 ml tubes, centrifuged, suspended in 100 μl each of the cryopreservation solutions described above, and frozen at a cooling temperature of −80° C. at a cooling rate of −1° C./min using a cell freezing container Mr. Frosty®.
(§4) 1 ml of a medium was added to the cryopreservation vial for thawing, and a supernatant was removed by centrifugation. Subsequently, the cells obtained by centrifugation were resuspended in a medium, followed by the measurement of a viable cell count. The results are indicated by a ratio to the viable cell count of OE2imC3C.

Mouse skin fibroblast = assay: as above; type: cell-based; details: −80° C., −1° C./min
Protocol: as §1, §2, §3, §4

Row | Compound | Heat quantity [1] | Tg [1] | further results
1 | C=CCn1cc[n+](CCCC(=O)[O-])c1 [AimC3C] | -188.37 J/g | −85 °C | 
2 | C=CCn1cc[n+](CCCS(=O)(=O)[O-])c1 [AimC3S] | -213.16 J/g | −85.76 °C | 
3 | C=CCn1cc[n+](CCCCS(=O)(=O)[O-])c1 [AimC4S] | -210.34 J/g | −86.07 °C | 
4 | C[S+](C)[O-] [DMSO, dimethyl sulfoxide] |  |  | influence on cell cycle (G0/G1 phase, S phase) (human fibroblasts): prolonged the G0/G1 phase and drastically shortened the S phase; development of surviving fertilized eggs (abnormality) (Wild-type zebrafish AB*; 5 % v/v in E3 medium): did not normally develop; Survival rate (Wild-type zebrafish AB*; Concentration 1 % (v/v for DMSO, w/v for HLS) in E3 medium): 27/27; Survival rate (Wild-type zebrafish AB*; Concentration 2 % (v/v for DMSO, w/v for HLS) in E3 medium): 27/27; Survival rate (Wild-type zebrafish AB*; Concentration 5 % (v/v for DMSO, w/v for HLS) in E3 medium): 4/27*; Survival rate (Wild-type zebrafish AB*; Concentration 10 % (v/v for DMSO, w/v for HLS) in E3 medium): 0/27
5 | Cn1cc[n+](CCCC(=O)[O-])c1 [Example C1imC3C] | -199.61 J/g | −95.22 °C | 
6 | Cn1cc[n+](CCCS(=O)(=O)[O-])c1 [Example C1imC3S] | -173.36 J/g | −88.88 °C | 
7 | C[n+]1ccn(CCCCCC(=O)[O-])c1 [Example C1imC5C] | -169.61 J/g | −84.51 °C | viable cell count, ratio to the viable cell count of OE2imC3C (Human renal cell; 5 wt % in purified water): 1.94; viable cell count, ratio to the viable cell count of OE2imC3C (Human renal cell; 10 wt % in purified water): 0.72; viable cell count, ratio to the viable cell count of OE2imC3C (Mouse skin fibroblast; 5 wt % in purified water): 0.82; viable cell count, ratio to the viable cell count of OE2imC3C (Mouse skin fibroblast; 10 wt % in purified water): 1.09
8 | CCCCn1cc[n+](CCCC(=O)[O-])c1 [Example C4imC3C] | -198.66 J/g | −75.3 °C | 
9 | CCCCn1cc[n+](CCCCCC(=O)[O-])c1 [Example C4imC5C] | -183.73 J/g | −74.59 °C | 
10 | CCCCCCCCn1cc[n+](CCCC(=O)[O-])c1 [Example C8imC3C] | -187.42 J/g | −84.05 °C | 
11 | CCCCCCCC[n+]1ccn(CCCS(=O)(=O)[O-])c1 [Example C8imC3S] |  |  | viable cell count, ratio to the viable cell count of OE2imC3C (Human renal cell; 5 wt % in purified water): 0.00; viable cell count, ratio to the viable cell count of OE2imC3C (Human renal cell; 10 wt % in purified water): 0.33; viable cell count, ratio to the viable cell count of OE2imC3C (Mouse skin fibroblast; 5 wt % in purified water): 0.00; viable cell count, ratio to the viable cell count of OE2imC3C (Mouse skin fibroblast; 10 wt % in purified water): 0.04
12 | CCCCCCCCCCCCCC[N+](C)(C)CCCC(=O)[O-] [N1,1,14C3C] | -182.67 J/g | −74.96 °C | viable cell count, ratio to the viable cell count of OE2imC3C (Human renal cell; 5 wt % in purified water): 0.59; viable cell count, ratio to the viable cell count of OE2imC3C (Human renal cell; 10 wt % in purified water): 0.56; viable cell count, ratio to the viable cell count of OE2imC3C (Mouse skin fibroblast; 5 wt % in purified water): 0.58; viable cell count, ratio to the viable cell count of OE2imC3C (Mouse skin fibroblast; 10 wt % in purified water): 0.77
13 | COCCn1cc[n+](CCCC(=O)[O-])c1 [OE1imC3C] | -188.49 J/g | −86.07 °C | 
14 | COCCOCCn1cc[n+](CCCS(=O)(=O)[O-])c1 [OE2imC3S] | -190.84 J/g | −85.48 °C | 
15 | COCCOCCn1cc[n+](CCCCCC(=O)[O-])c1 [OE2imC5C] | -190.82 J/g | −83.34 °C | 
16 | O=C([O-])CCC[n+]1ccccc1 [PyC3C] | -182.59 J/g | −90.35 °C | 
17 | C[N+]1(CCCC(=O)[O-])CCCC1 [PyrrC3C] | -188.06 J/g | −91.85 °C | 
18 | C=Cn1cc[n+](CCCC(=O)[O-])c1 [VimC3C] | -182.17 J/g | −85.74 °C | 
19 | C=Cn1cc[n+](CCCS(=O)(=O)[O-])c1 [VimC3S] | -170.72 J/g | −81.06 °C | 

— US12484574B2, “Agent for promoting undifferentiation and cryoprotective agent using aprotic zwitterion” (JAPAN SCIENCE AND TECHNOLOGY AGENCY, priority 2019, dated 2025)
